Measured values: US6358885B1, “Substituted phenylheterocyclic herbicides” (Mississippi State University, priority 1992, dated 2002)

What was measured:
[1] = test system: sorghum; assay: Test B preemergence/postemergence greenhouse plant response rating 0 to 10; type: in vivo, Sorghum bicolor; conditions: 0 to 10 scale
How it was run: (§1)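 Both application timings were run together: seeds got compound preemergence, and established seedlings (two to eighteen cm) got it postemergence. Non-phytotoxic solvent carried the chemical. Ratings are visual, versus controls, at twelve to sixteen days.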

[2] = test system: velvetleaf; assay: Test C preemergence/postemergence greenhouse plant response rating 0 to 100; type: in vivo, Abutilon theophrasti; conditions: POSTEMERGENCE; for Plant response rating, Velvetleaf: 0 to 100 scale
How it was run: (§2)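 Compounds in non-phytotoxic solvent applied preemergence to sandy loam one day after planting, postemergence at the 1–4 leaf stage, or to ~2.5 cm floodwater over silt loam.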

[3] = test system: sugar beet; assay: as above; type: in vivo, Beta vulgaris; conditions: POSTEMERGENCE; for Plant response rating, Sugar beet: 0 to 100 scale
How it was run: as §2

[4] = test system: wild oat; assay: Test B preemergence/postemergence greenhouse plant response rating 0 to 10; type: in vivo, Avena fatua; conditions: 0 to 10 scale
How it was run: as §1

[5] = test system: wild buckwheat; assay: as above; type: in vivo, Polygonum convolvulus; conditions: 0 to 10 scale
How it was run: as §1

[6] = test system: corn; assay: as above; type: in vivo, Zea mays; conditions: 0 to 10 scale
How it was run: as §1

[7] = test system: giant foxtail; assay: as above; type: in vivo, Setaria faberii; conditions: 0 to 10 scale
How it was run: as §1

[8] = test system: barley; assay: Test C preemergence/postemergence greenhouse plant response rating 0 to 100; type: in vivo, Hordeum vulgare; conditions: POSTEMERGENCE; for Plant response rating Barley Igri: 0 to 100 scale
How it was run: as §2

[9] = test system: duck salad; assay: Test C flood test plant response rating 0 to 100; type: in vivo, Heteranthera limosa; conditions: for Plant response rating (0 to 100), Duck salad: under POSTEMERGENCE head (flood test species); for Plant response rating Duck salad: flood test species listed under POSTEMERGENCE, 0 to 100 scale
How it was run: as §2

[10] = test system: ryegrass; assay: Test C preemergence/postemergence greenhouse plant response rating 0 to 100; type: in vivo, Lolium multiflorum; conditions: POSTEMERGENCE
How it was run: as §2

[11] = test system: lambsquarters; assay: as above; type: in vivo, Chenopodium album; conditions: POSTEMERGENCE; for Plant response rating Lambsquarters: 0 to 100 scale
How it was run: as §2

[12] = test system: downy brome; assay: as above; type: in vivo, Bromus tectorum; conditions: POSTEMERGENCE; for Plant response rating Downy Brome: 0 to 100 scale
How it was run: as §2

[13] = test system: cotton; assay: as above; type: in vivo, Gossypium hirsutum; conditions: POSTEMERGENCE; for Plant response rating, Cotton: 0 to 100 scale
How it was run: as §2

[14] = test system: chickweed; assay: Test B preemergence/postemergence greenhouse plant response rating 0 to 10; type: in vivo, Stellaria media; conditions: 0 to 10 scale
How it was run: as §1

[15] = test system: cheatgrass; assay: as above; type: in vivo, Bromus secalinus; conditions: 0 to 10 scale
How it was run: as §1

[16] = test system: soybean; assay: Test C preemergence/postemergence greenhouse plant response rating 0 to 100; type: in vivo, Glycine max; conditions: POSTEMERGENCE; for Plant response rating, Soybean: 0 to 100 scale
How it was run: as §2

[17] = test system: wild buckwheat; assay: as above; type: in vivo, Polygonum convolvulus; conditions: POSTEMERGENCE; for Plant response rating, Wild buckwheat: 0 to 100 scale
How it was run: as §2

[18] = test system: chickweed; assay: as above; type: in vivo, Stellaria media; conditions: POSTEMERGENCE; for Plant response rating, Chickweed: 0 to 100 scale
How it was run: as §2

`CC(C)OC(=O)COc1cc(-c2nn3c(c2Cl)CCCC3)c(F)cc1Cl` [Compound 39] was tested, and the “Plant response rating, Sorghum” value ([1]; POSTEMERGENCE, Rate 50 g/ha) was 5, the “Plant response rating, Sorghum” value ([1]; PREEMERGENCE, Rate 50 g/ha) was 0 and the “Plant response rating, Sorghum” value ([1]; Rate 200 g/ha, POSTEMERGENCE) was 5. For the same molecule, the “Plant response rating, Sorghum” value ([1]; Rate 200 g/ha, PREEMERGENCE) was 0, the “Plant response rating, Velvetleaf” value ([2]; 62 g/ha) was 100 and the “Plant response rating, Velvetleaf” value ([2]; 125 g/ha) was 100. For the same molecule, the “Plant response rating (0 to 100), Velvetleaf” value ([2]; Rate 16 g/ha) was 100, the “Plant response rating (0 to 100), Velvetleaf” value ([2]; Rate 31 g/ha) was 100 and the “Plant response rating, Sugar beet” value ([3]; 62 g/ha) was 100. For the same molecule, the “Plant response rating, Sugar beet” value ([3]; 125 g/ha) was 100, the “Plant response rating (0 to 100), Sugar beet” value ([3]; Rate 16 g/ha) was 100 and the “Plant response rating (0 to 100), Sugar beet” value ([3]; Rate 31 g/ha) was 100. For the same molecule, the “Plant response rating, Wild oat” value ([4]; POSTEMERGENCE, Rate 50 g/ha) was 3, the “Plant response rating, Wild oat” value ([4]; PREEMERGENCE, Rate 50 g/ha) was 0 and the “Plant response rating, Wild oat” value ([4]; Rate 200 g/ha, POSTEMERGENCE) was 3. The “Plant response rating, Wild buckwheat” value ([5]; POSTEMERGENCE, Rate 50 g/ha) was 10, the “Plant response rating, Wild buckwheat” value ([5]; PREEMERGENCE, Rate 50 g/ha) was 10 and the “Plant response rating, Wild buckwheat” value ([5]; Rate 200 g/ha, POSTEMERGENCE) was 10. For the same molecule, the “Plant response rating, Wild buckwheat” value ([5]; Rate 200 g/ha, PREEMERGENCE) was 10, the “Plant response rating, Corn” value ([6]; POSTEMERGENCE, Rate 50 g/ha) was 5 and the “Plant response rating, Corn” value ([6]; POSTEMERGENCE, Rate 200 g/ha) was 5. For the same molecule, the “Plant response rating, Corn” value ([6]; PREEMERGENCE, Rate 50 g/ha) was 0, the “Plant response rating, Corn” value ([6]; Rate 200 g/ha, PREEMERGENCE) was 0 and the “Plant response rating, Giant foxtail” value ([7]; POSTEMERGENCE, Rate 50 g/ha) was 4. The “Plant response rating, Giant foxtail” value ([7]; PREEMERGENCE, Rate 50 g/ha) was 5, the “Plant response rating, Giant foxtail” value ([7]; Rate 200 g/ha, POSTEMERGENCE) was 5 and the “Plant response rating, Giant foxtail” value ([7]; Rate 200 g/ha, PREEMERGENCE) was 2. The “Plant response rating Barley Igri” value ([8]; 62 g/ha) was 30, the “Plant response rating Barley Igri” value ([8]; 125 g/ha) was 40 and the “Plant response rating (0 to 100), Barley Igri” value ([8]; Rate 16 g/ha) was 20. For the same molecule, the “Plant response rating (0 to 100), Barley Igri” value ([8]; Rate 31 g/ha) was 30, the “Plant response rating (0 to 100), Duck salad” value ([9]; Rate 16 g/ha) was 0 and the “Plant response rating (0 to 100), Duck salad” value ([9]; Rate 31 g/ha) was 0. The “Plant response rating Duck salad” value ([9]; 62 g/ha) was 0, the “Plant response rating Duck salad” value ([9]; 125 g/ha) was 0 and the “Plant response rating Ryegrass” value ([10]; 125 g/ha, 0 to 100 scale) was 20. The “Plant response rating (0 to 100), Ryegrass” value ([10]; Rate 16 g/ha) was 10, the “Plant response rating (0 to 100), Ryegrass” value ([10]; Rate 31 g/ha) was 10 and the “Plant response rating Lambsquarters” value ([11]; 62 g/ha) was 100. For the same molecule, the “Plant response rating Lambsquarters” value ([11]; 125 g/ha) was 100, the “Plant response rating (0 to 100), Lambsquarters” value ([11]; Rate 16 g/ha) was 70 and the “Plant response rating (0 to 100), Lambsquarters” value ([11]; Rate 31 g/ha) was 100. For the same molecule, the “Plant response rating Downy Brome” value ([12]; 62 g/ha) was 30, the “Plant response rating Downy Brome” value ([12]; 125 g/ha) was 40 and the “Plant response rating (0 to 100), Downy Brome” value ([12]; Rate 16 g/ha) was 10. For the same molecule, the “Plant response rating (0 to 100), Downy Brome” value ([12]; Rate 31 g/ha) was 20, the “Plant response rating, Cotton” value ([13]; 62 g/ha) was 100 and the “Plant response rating, Cotton” value ([13]; 125 g/ha) was 100. For the same molecule, the “Plant response rating (0 to 100), Cotton” value ([13]; Rate 16 g/ha) was 100, the “Plant response rating (0 to 100), Cotton” value ([13]; Rate 31 g/ha) was 100 and the “Plant response rating, Chickweed” value ([14]; POSTEMERGENCE, Rate 50 g/ha) was 8. The “Plant response rating, Chickweed” value ([14]; POSTEMERGENCE, Rate 200 g/ha) was 10, the “Plant response rating, Chickweed” value ([14]; PREEMERGENCE, Rate 50 g/ha) was 0 and the “Plant response rating, Chickweed” value ([14]; Rate 200 g/ha, PREEMERGENCE) was 5. The “Plant response rating, Cheatgrass” value ([15]; POSTEMERGENCE, Rate 50 g/ha) was 4, the “Plant response rating, Cheatgrass” value ([15]; POSTEMERGENCE, Rate 200 g/ha) was 4 and the “Plant response rating, Cheatgrass” value ([15]; PREEMERGENCE, Rate 50 g/ha) was 0. For the same molecule, the “Plant response rating, Cheatgrass” value ([15]; Rate 200 g/ha, PREEMERGENCE) was 2, the “Plant response rating, Soybean” value ([16]; 62 g/ha) was 60 and the “Plant response rating, Soybean” value ([16]; 125 g/ha) was 70. The “Plant response rating (0 to 100), Soybean” value ([16]; Rate 16 g/ha) was 30, the “Plant response rating (0 to 100), Soybean” value ([16]; Rate 31 g/ha) was 50 and the “Plant response rating, Wild buckwheat” value ([17]; 62 g/ha) was 90. The “Plant response rating, Wild buckwheat” value ([17]; 125 g/ha) was 100, the “Plant response rating (0 to 100), Wild buckwheat” value ([17]; Rate 31 g/ha) was 70 and the “Plant response rating, Chickweed” value ([18]; 62 g/ha) was 40. For the same molecule, the “Plant response rating, Chickweed” value ([18]; 125 g/ha) was 70, the “Plant response rating (0 to 100), Chickweed” value ([18]; Rate 16 g/ha) was 20 and the “Plant response rating (0 to 100), Chickweed” value ([18]; Rate 31 g/ha) was 30.
